{
  "source": "patent US10517934B2",
  "about": "“Compositions and methods for the treatment of photoaging and other conditions” (PRO TRANSIT NANOTHERAPY LLC, priority 2014, dated 2019)",
  "system": "UV-induced free radicals in porcine ear skin",
  "test": "Skin antioxidative protection/retention (SAP/SAR) by ESR spectroscopy in porcine ear skin exposed to UV",
  "set-up": "species or system pig",
  "description": "Freshly excised porcine ear skin is close to human skin that is routinely used as a model for testing the protective efficacy of several topically applied antioxidants against UV-induced free radicals. Porcine skin biopsies obtained from local slaughterhouse (pig skin, 6 month old animals, external lobe of the ears) were used for the experiments. The skin was washed, the subdermal fat was removed and cut into 2×2 cm pieces before the application of test samples on the epidermal layer.\nThe skin has an intrinsic antioxidant protection potential (enzymatic and non-enzymatic), which can be measured by electron spin resonance (ESR) spectroscopy. If an active test sample applied to the stratum corneum penetrates to deep layers of skin, it increases the skin antioxidative protection (SAP). Labeling skin epidermis and dermis (by soaking skin on dermis side) with a semi-stable test radical (TEMPO, 2,2,6,6-tetramethyl piperidine-N-oxyl) that reacts with free radicals produces signal intensities detected by ESR spectroscopy, which can be quantitatively expressed as percent SAP values to determine the antioxidant activity in skin (epidermis and dermis).\nUsing SAP values from ESR spectroscopy, skin antioxidative retention (SAR) potential of a test cosmetic formulation can be effectively measured using appropriate radical probes. SAR value indicates the antioxidative activity of the skin after free radical damage (UV radiation), which evaluates the protective effectiveness of topically applied antioxidants/free radical scavengers. In addition to the assessment of antioxidative activity in skin, the SAR value also validates the penetration of the topically applied antioxidants. The SAR values are expressed in percent and are calculated using the following formula: SAR [%]=(SAPUV,Product−SAPUV,Placebo)/(SAPPlacebo−SAPUV,Placebo).\nThe study was conducted blinded and the operator was supplied with formulations that were coded. Pro-NP™, control NPs, or placebo (mixed at 2% w/w in anhydrous lotion) were applied on the skin (2 mg/cm^2) and allowed to penetrate for definite times (10 minutes, 30 minutes, 4 hours or 18 hours). The skin was then exposed to UV radiation (0.6 MED; Minimal Erythema Dose) to induce free radicals that lead to a decrease in the SAP values up to 59% of the initial value (without UV treatment) of the untreated skin. Irradiation source: UV solar simulator 300 W Oriel (Newport). The irradiances as integrated value over the spectral ranges were E (UVB=280-320)=23.5 W/m^2 and E (UVA=320-400 nm)=180 W/m^2. The maintenance of the SAP values after UV exposure due to the test product is expressed by the SAR values.",
  "data": [
    {"substance": "Tocopherol [1% Tocopherol]", "values": [
      {"measurement": "SAR (%) 10 mins", "setting": "2% w/w in anhydrous lotion, 2 mg/cm^2, 10 mins penetration, UV 0.6 MED", "value": 20, "unit": "%"},
      {"measurement": "SAR (%) 30 mins", "setting": "30 mins penetration, UV 0.6 MED", "value": 6, "unit": "%"},
      {"measurement": "SAR (%) 4 hrs", "setting": "4 hrs penetration, UV 0.6 MED", "value": 0, "unit": "%"},
      {"measurement": "SAR (%) 18 hrs", "setting": "18 hrs penetration, UV 0.6 MED", "value": 0, "unit": "%"},
      {"measurement": "protection after UV", "setting": "after 10 minutes application", "value": 24, "unit": "%"},
      {"measurement": "protection after UV", "setting": "after 30 minutes", "value": "very weak protection"},
      {"measurement": "increase of the SAP values before UV irradiation with respect to untreated skin", "setting": "without UV irradiation", "value": 29, "unit": "%"}
    ]}
  ]
}
